The source of these data is ChEMBL document CHEMBL1201862, “PubChem BioAssay data set” (2004).

In assay [1] the target is T1, DNA repair and recombination protein RAD54-like (Homo sapiens, UniProt Q92698).
T1 sequence (Q92698 whole entry): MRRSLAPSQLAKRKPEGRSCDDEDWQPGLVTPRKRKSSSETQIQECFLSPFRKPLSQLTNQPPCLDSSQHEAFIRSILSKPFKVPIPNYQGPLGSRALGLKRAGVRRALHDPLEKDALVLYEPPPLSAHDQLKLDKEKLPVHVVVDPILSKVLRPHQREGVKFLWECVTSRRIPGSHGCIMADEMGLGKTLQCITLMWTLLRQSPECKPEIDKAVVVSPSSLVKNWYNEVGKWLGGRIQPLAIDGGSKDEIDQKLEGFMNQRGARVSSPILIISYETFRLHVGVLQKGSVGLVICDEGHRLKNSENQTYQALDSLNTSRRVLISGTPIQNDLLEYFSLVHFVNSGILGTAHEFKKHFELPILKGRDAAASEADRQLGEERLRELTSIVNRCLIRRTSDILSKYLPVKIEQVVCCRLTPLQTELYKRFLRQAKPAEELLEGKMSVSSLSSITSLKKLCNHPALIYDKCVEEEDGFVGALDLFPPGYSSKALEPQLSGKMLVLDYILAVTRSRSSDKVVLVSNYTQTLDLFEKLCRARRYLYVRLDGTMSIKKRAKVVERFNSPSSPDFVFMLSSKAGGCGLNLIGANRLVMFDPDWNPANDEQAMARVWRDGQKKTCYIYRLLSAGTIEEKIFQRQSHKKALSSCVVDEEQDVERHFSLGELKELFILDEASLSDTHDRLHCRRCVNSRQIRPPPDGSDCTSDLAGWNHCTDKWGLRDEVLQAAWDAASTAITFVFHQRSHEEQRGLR
Nature of the assay: inhibitors of human RAD54 branch migration, confirmation, biochemical, fluorescence, cherry-picked samples, dose series (AID 651657). It counts as functional.

In assay [2] the target is T2, Endoribonuclease toxin MazF (Escherichia coli K-12, UniProt P0AE70).
T2 sequence (P0AE70 whole entry): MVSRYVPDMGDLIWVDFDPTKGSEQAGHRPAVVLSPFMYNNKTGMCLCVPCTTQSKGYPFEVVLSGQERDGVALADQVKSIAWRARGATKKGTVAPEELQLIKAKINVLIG
Nature of the assay: MazF toxin RNase activators, dose response, biochemical, fluorescence, single-stranded RNA substrate, uHTS hits (AID 588481). It counts as functional.

The target in assay [3] is T2, Endoribonuclease toxin MazF. Kind of assay: fluorescent RNA oligo signal without MazF, dose response, counter-screen for MazEF activator project, biochemical, fluorescence, single-stranded RNase substrate (AID 588502). It counts as functional. (Counterscreens check selectivity or assay interference.)
Assay [4] deals with T3, RNA-binding protein pos-1 (Caenorhabditis elegans, UniProt G5EF15).
T3 sequence (G5EF15 whole entry): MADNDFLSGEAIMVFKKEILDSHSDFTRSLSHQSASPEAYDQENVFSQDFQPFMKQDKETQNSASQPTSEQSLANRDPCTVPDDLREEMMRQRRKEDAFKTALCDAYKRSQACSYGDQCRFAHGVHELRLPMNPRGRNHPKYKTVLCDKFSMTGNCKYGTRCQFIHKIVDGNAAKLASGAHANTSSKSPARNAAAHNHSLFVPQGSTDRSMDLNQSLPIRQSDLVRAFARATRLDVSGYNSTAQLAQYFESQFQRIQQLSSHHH
Kind of assay: inhibitors of POS-1/mex-3 RNA binding, dose response, biochemical, fluorescence polarization (AID 1964).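 Further: purified POS-1 fused to maltose binding protein made in E. coli; potency of compounds blocking POS-1 binding to fluorescent RNA.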 In general terms: Fluorescence polarisation rises when a labelled molecule tumbles more slowly, as on binding a larger partner.

For assay [5], the target named is T4, Zinc finger protein mex-5 (Caenorhabditis elegans, UniProt Q9XUB2).
T4 sequence (Q9XUB2 whole entry): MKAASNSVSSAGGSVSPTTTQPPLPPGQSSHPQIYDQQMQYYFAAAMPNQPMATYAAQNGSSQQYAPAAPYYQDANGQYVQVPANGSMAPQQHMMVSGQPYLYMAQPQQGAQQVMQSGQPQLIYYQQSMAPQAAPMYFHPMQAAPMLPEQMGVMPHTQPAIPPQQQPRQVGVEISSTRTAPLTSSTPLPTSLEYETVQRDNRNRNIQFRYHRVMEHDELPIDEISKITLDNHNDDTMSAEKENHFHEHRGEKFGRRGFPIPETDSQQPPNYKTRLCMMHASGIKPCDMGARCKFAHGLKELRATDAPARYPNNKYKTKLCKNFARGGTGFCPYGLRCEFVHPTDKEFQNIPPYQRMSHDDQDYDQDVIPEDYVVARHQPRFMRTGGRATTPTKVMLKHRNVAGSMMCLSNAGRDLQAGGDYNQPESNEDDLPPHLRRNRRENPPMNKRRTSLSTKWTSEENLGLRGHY
Nature of the assay: MEX-5/TCR-2 RNA interaction inhibitors, dose response, biochemical, C. elegans, fluorescence polarization (AID 1960).

The nature of assay [6]: inhibitors of intracellular T. cruzi replication, confirmation, NIH3T3 host cells, beta-gal luminescence (AID 2044).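 Further: intracellular parasites grown in NIH/3T3 mouse fibroblasts as host cells; luminescent beta-galactosidase reporter signal from transgenic T. cruzi replicating inside host cells; inhibitors lower the luminescence signal.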 It counts as functional, cell-based.
Assay [7] in a line: microbe, parasite or virus in culture. It counts as functional. The settings on record: Mycobacterium tuberculosis.
Assay [8] in a line: cytotoxicity toward NIH3T3 fibroblasts, dose response, counter-screen, cell-based, ATP luminescence, mouse fibroblasts (AID 2010).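 Further: cells exposed to compound for about 90 hours before reading.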 It counts as functional.
The target of assay [9] is T5, Replicative DNA helicase DnaB (Mycobacterium tuberculosis, UniProt P9WMR3).
T5 sequence (P9WMR3 whole entry): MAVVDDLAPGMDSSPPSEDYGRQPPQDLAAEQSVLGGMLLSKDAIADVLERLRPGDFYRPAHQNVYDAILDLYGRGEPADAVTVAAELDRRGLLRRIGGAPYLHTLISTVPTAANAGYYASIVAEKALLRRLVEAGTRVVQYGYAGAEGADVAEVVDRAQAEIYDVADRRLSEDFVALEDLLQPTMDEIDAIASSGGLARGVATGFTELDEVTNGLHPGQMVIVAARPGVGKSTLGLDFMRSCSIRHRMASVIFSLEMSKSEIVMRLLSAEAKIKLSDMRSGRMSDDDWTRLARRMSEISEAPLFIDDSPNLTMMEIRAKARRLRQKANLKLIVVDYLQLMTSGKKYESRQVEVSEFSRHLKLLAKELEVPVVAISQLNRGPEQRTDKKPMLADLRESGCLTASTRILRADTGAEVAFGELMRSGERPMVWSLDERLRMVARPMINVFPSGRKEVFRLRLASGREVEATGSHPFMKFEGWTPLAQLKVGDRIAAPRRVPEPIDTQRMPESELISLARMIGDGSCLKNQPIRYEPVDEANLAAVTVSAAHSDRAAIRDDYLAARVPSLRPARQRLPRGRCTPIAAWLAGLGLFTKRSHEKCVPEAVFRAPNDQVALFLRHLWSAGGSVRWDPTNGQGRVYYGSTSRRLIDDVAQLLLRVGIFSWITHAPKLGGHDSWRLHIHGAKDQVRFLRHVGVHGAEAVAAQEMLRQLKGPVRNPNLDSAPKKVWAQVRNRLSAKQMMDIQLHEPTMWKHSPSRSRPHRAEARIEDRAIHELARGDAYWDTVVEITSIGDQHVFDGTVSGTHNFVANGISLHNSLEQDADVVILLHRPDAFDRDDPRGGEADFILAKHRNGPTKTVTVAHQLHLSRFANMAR
Nature of the assay: DnaB intein splicing inhibitors, dose response, biochemical, cell-free fluorescence (AID 449749). It counts as functional.

For another assay, the target named is T6, Protein RecA (Mycobacterium tuberculosis, UniProt P9WHJ3).
T6 sequence (P9WHJ3 whole entry): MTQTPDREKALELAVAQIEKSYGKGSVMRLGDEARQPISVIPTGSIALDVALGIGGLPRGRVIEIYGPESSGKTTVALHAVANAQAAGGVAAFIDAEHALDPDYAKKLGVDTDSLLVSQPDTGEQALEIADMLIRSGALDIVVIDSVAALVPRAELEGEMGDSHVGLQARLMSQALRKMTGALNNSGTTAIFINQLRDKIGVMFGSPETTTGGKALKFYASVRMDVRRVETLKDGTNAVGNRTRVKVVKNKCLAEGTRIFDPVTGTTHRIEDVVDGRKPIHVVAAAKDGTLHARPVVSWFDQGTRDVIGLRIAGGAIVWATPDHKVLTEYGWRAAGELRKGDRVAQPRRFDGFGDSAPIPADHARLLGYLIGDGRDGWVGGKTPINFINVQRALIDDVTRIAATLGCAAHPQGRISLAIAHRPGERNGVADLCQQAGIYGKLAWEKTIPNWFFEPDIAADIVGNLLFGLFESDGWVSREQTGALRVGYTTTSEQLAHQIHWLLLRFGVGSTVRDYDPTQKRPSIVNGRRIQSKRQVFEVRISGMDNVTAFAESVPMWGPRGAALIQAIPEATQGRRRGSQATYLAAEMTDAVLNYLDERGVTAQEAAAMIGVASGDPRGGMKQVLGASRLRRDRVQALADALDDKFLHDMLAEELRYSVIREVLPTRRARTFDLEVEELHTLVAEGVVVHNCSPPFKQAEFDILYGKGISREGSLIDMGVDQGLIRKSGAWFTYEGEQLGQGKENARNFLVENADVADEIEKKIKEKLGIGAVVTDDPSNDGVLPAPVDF
Kind of assay: Fluorescence Cell-Free Homogeneous Dose Retest to Identify Inhibitors of RecA-Intein Splicing Activity. [Related pubchem assays (depositor defined):AID2097, AID2223, AID489010, AID492950]. The assay is classed as functional.

The target of assay [10] is Peroxisome proliferator-activated receptor gamma/Nuclear receptor coactivator 1 (Homo sapiens, UniProt P37231). Kind of assay: TR-FRET dose response biochemical High Throughput Screening assay for agonists of the steroid receptor coactivator 1 (SRC-1) recruitment by the peroxisome proliferator-activated receptor gamma (PPAR gamma): non-selective agonists. [Related pubchem assays (depositor defined):AID1300, AID1808, AID504735, AID631]. The assay is classed as protein assay.

For assay [11], the target named is Peroxisome proliferator-activated receptor gamma/Nuclear receptor coactivator 3 (Homo sapiens, UniProt P37231). Nature of the assay: TR-FRET dose response biochemical High Throughput Screening assay for agonists of the steroid receptor coactivator 3 (SRC-3) recruitment by the peroxisome proliferator-activated receptor gamma (PPAR gamma): non-selective agonists. [Related pubchem assays: 1301 (Confirmation screen.), 1048 (Primary screen.)]. It counts as functional. (In general: In TR-FRET formats the signal depends on donor and acceptor labels being close together.)
Sequence of Peroxisome proliferator-activated receptor gamma/Nuclear receptor coactivator 3 (P37231 whole entry): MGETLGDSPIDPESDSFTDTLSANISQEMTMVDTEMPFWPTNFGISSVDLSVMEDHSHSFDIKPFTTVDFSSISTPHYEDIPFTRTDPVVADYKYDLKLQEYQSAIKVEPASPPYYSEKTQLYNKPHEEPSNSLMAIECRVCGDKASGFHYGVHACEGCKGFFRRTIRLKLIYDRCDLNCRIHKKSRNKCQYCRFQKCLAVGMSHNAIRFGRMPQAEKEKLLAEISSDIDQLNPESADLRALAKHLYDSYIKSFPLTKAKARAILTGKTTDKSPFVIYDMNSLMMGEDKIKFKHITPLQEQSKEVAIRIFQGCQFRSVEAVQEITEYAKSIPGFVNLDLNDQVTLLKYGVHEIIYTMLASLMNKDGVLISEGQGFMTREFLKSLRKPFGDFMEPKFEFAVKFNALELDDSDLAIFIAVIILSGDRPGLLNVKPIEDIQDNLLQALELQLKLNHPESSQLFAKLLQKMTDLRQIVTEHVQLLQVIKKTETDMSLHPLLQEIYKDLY
Sequence of Peroxisome proliferator-activated receptor gamma/Nuclear receptor coactivator 3 (Q9Y6Q9 whole entry, further chain): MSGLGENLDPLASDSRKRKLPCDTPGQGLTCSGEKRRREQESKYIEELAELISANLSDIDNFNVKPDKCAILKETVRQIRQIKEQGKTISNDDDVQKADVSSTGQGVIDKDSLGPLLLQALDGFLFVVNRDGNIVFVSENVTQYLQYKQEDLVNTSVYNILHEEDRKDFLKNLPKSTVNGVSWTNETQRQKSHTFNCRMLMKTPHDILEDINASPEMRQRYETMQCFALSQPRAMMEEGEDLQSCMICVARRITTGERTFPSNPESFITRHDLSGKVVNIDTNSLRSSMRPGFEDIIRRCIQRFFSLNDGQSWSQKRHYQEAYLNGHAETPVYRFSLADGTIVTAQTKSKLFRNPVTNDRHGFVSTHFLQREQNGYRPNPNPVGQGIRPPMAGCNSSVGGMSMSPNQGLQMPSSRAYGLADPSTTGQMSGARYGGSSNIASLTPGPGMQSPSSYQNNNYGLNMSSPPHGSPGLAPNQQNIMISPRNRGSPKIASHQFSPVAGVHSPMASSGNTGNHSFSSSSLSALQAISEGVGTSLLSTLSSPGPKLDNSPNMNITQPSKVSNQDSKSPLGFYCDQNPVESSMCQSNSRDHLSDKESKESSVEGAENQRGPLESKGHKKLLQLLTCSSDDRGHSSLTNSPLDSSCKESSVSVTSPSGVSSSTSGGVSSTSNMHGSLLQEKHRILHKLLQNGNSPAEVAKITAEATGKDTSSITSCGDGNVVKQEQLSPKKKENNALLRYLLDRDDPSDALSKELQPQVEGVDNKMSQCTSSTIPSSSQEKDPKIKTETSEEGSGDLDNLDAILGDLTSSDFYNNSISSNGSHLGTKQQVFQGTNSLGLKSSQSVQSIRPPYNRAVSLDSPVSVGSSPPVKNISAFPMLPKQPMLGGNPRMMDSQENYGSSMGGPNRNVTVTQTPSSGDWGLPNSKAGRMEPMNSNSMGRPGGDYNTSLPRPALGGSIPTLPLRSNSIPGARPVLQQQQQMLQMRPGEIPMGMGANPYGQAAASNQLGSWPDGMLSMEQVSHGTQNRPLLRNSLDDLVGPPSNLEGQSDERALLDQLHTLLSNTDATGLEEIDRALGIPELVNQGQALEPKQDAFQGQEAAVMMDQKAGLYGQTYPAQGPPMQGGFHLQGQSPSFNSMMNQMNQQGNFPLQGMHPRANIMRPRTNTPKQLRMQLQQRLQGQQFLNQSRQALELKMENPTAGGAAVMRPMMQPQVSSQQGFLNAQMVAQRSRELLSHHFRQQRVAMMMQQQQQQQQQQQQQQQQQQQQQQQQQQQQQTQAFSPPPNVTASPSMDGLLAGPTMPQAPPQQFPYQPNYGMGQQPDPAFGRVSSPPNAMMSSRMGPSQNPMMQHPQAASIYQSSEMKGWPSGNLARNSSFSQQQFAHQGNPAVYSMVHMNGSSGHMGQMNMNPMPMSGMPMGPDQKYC

For assay [12], the target named is Peroxisome proliferator-activated receptor gamma/Nuclear receptor coactivator 2 (Homo sapiens, UniProt P37231). Kind of assay: TR-FRET dose response biochemical High Throughput Screening assay for agonists of the steroid receptor coactivator 2 (SRC-2) recruitment by the peroxisome proliferator-activated receptor gamma (PPAR gamma): non-selective agonists. [Related pubchem assays: 1297, 1032 ]. The assay is classed as functional.
Sequence of Peroxisome proliferator-activated receptor gamma/Nuclear receptor coactivator 2 (P37231 whole entry): as the sequence (P37231 whole entry) above
Sequence of Peroxisome proliferator-activated receptor gamma/Nuclear receptor coactivator 2 (Q15596 whole entry, further chain): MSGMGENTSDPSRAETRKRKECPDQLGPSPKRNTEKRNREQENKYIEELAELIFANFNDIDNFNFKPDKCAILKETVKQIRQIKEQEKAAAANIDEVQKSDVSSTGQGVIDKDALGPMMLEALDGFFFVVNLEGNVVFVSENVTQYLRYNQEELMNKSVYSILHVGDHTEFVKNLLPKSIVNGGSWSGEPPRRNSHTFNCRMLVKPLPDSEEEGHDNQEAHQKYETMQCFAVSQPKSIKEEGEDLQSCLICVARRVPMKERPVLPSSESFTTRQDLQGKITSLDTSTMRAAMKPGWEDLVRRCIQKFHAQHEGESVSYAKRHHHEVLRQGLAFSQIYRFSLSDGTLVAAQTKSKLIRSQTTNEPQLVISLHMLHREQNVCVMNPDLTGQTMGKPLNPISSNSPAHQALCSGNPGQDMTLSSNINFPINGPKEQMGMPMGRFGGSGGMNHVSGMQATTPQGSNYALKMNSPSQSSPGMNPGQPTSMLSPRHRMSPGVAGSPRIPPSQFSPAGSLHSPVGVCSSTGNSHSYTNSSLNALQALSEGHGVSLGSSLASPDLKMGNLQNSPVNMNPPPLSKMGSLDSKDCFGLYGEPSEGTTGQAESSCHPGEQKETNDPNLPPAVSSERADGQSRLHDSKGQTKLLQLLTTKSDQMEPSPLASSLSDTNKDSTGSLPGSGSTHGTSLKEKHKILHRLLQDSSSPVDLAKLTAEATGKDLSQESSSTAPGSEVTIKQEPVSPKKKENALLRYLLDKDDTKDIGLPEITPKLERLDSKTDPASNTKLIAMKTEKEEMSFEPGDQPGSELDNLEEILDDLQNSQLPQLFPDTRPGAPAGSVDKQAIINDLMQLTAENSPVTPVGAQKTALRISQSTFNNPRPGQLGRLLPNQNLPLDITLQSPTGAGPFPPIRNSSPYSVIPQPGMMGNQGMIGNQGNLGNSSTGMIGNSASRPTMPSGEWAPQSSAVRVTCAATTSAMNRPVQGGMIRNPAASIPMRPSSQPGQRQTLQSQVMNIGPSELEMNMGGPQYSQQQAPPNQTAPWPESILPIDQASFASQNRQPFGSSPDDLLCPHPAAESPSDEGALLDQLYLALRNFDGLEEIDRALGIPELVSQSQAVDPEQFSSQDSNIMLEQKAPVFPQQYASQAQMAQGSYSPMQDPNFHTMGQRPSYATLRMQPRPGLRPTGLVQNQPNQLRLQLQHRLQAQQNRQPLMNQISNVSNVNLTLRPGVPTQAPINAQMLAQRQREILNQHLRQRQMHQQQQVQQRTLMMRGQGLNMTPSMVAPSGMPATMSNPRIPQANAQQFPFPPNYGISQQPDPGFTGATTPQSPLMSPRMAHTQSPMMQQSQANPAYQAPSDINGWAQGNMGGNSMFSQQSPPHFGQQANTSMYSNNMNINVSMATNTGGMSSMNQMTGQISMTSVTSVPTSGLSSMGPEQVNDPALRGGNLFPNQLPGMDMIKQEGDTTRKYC

A further assay concerns Vero. Nature of the assay: cells. The assay is classed as functional. The settings on record: Chlorocebus sabaeus.
Assay [13] is described as follows: intracellular Trypanosoma cruzi inhibitors in host cells – cell-based, plate reader, cherry-pick samples, set 3, dose response (AID 651818).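 Further: compounds incubated with infected cells for about four days.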 It counts as functional.
Assay [14] is described as follows: P. falciparum Dd2 growth inhibitors, dose response, SYBR Green, cherry-picked samples (AID 1159567). It counts as functional, cell-based.

Active and inactive are the calls of the source. Bounds are passed on as bounds.

Broadly, the AC50 is the midpoint of the concentration-response curve, whichever way the signal moves. Take `CN(C)CCCNc1nc(-c2ccccc2)nc2ccccc12`: the AC50 in assay [1] is 28.8 µM (active).
The EC50 is the concentration at which the effect is half-maximal. As for `Cc1cccc2cc3c(N)c(C(=O)N4CCc5ccccc54)sc3nc12`, the figures for the EC50 in [2] and in assay [3] were > 99 µM (inactive) and 43.4 µM (inactive), respectively.
For `Cc1cccn2c(=O)c3cc(C#N)c(=O)n(CCCN4CCOCC4)c3nc12`, the AC50 in assay [1] was 48.9 µM (active).
Take `Cc1cc(/C=C2\C(=O)NC(=O)N(Cc3ccccc3)C2=O)c(C)n1C1CC1`: the half-maximal effective concentration (EC50) is > 300 µM (not active) in assay [4], > 300 µM (not active) in [5], > 99 µM (inactive) in assay [2] and 23.4 µM (inactive) in assay [3].
For the compound `COc1ccc(Nc2nc(N3CCCCC3)nc3ccccc23)c(OC)c1`, the results for the EC50 (in assay [6]; in assay [8]; at Protein RecA) were 0.578 µM (active), > 60 µM (inconclusive) and 114 µM (active), respectively. The CC50 in assay [7] was > 40 µM (active). The AC50 is 280 µM (active) in [9] and 62.2 µM (active) in assay [1].
Take `COc1cccc(NC(=O)CSc2c3c(nc4ccccc24)CCCC3)c1`: the EC50 in assay [10] is > 79.4 µM (inactive); in assay [11], > 79.4 µM (not active); in [12] it was 66.1 µM (not active); at Protein RecA, 3.36 µM (active). Also, the AC50 in assay [9] was 35.9 µM (active).
On to `COc1ccc(CNC(=O)C(C#N)c2nc3ccccc3nc2N2CCCC2)cc1` (stereo unspecified), for which the 50% effective concentration (EC50) in assay [2] was 9.99 µM (active); in assay [3], 14.5 µM (active).
As for `COc1ccc(C(=O)CC(SCC(NC(C)=O)C(=O)O)c2ccc(Cl)cc2)cc1OC` (stereo unspecified), in the assay with Vero, the CC50 is 22.4 µM (active).
Consider `CN1CCc2[nH]c3ccc(C(=O)NN)cc3c2C1`, for which the AC50 in assay [1] was 100 µM (inactive).
In the case of `CN(C)c1ccc(C=C2C=Cc3ccccc32)cc1`, the figures for the EC50 in assay [2] and in [3] were > 99 µM (inactive) and 20.7 µM (inactive), respectively.
For `COc1cc2cc(c1Cl)N(C)C(=O)CC(OC(=O)C(C)N(C)C(C)=O)C1(C)OC1C(C)C1CC(O)(NC(=O)O1)C(OC)C=CC=C(C)C2` (stereo unspecified), in the assay with Vero, the CC50 was < 0.05 µM (active).
Take `Cc1ccc(S(=O)(=O)Nc2ccc3c(c2)CC(=O)N([C@@H](C)CO)C[C@@H](C)[C@@H](CN(C)Cc2ccc(C(=O)Nc4ccccc4N)cc2)O3)cc1`: in [13], the half-maximal activity concentration (AC50) is 2.94 µM (active).
Consider `C[C@@H]1CN([C@H](C)CO)C(=O)c2cccc(NC(=O)Nc3cccc4ccccc34)c2O[C@@H]1CN(C)C(=O)Nc1ccc(F)cc1`, for which the values for the AC50 in assay [13] and in assay [14] were 3.81 µM (active) and 3.76 µM (active), respectively.
On to `Cc1ccc(S(=O)(=O)Nc2cccc3c2O[C@@H](CN(C)Cc2ccc(C(=O)Nc4ccccc4N)cc2)[C@@H](C)CN([C@H](C)CO)C3=O)cc1`, for which the AC50 in assay [13] is 5.8 µM (active).
Still for that read-out and setting: with `COc1ccc(S(=O)(=O)Nc2ccc3c(c2)CC(=O)N([C@@H](C)CO)C[C@H](C)[C@H](CN(C)Cc2ccc(Cl)c(Cl)c2)O3)cc1` the figure was 5.64 µM (active).
